These results are taken from US20250179059A1 (The Regents of the University of California, priority 2021, published 2025).

For orientation: IC50 means the concentration needed to halve the response being measured. The GI50 is the concentration giving 50% growth inhibition. Higher therefore signals less potent growth inhibition.

Each structure is given as a SMILES string. Like-named read-outs stand apart in the source and are kept apart here.

Assay [1] concerns the target T1, human BRD4 bromodomain II (Homo sapiens, UniProt O60885).
T1 construct: human BRD4 bromodomain II [based on Genbank NM_058243, residues 349-460]; host or cells: E. coli
In words: Bromodomain binding assay (AlphaScreen), BRD4 BDII. A digest of the protocol: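 AlphaScreen competition with biotinylated H4 peptide (aa 1-21, K5/K8/K12/K16Ac), using nickel-chelate acceptor and streptavidin donor beads. Targets were His6-BRD4 BDI (44-170) or BDII (349-460), with a 30 min compound preincubation over a 10-point 3-fold series. IC50 was fitted from percentage peptide binding.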

Assay [2] relates to human SKM-1 acute myeloid leukemia cells. Nature of the assay: SKM-1 antiproliferation cell-based assay (ATPlite). To be noted: Homo sapiens. A digest of the protocol: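 Log-phase cells in RPMI 1640/15% FBS were seeded at 34722 cells/mL and exposed for 4 days to nine-concentration DMSO serial dilutions in triplicate. Viability was read as ATP luminescence (ATPlite 1step), and IC50 values came from variable-slope non-linear regression.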
(In general: Cellular ATP, detected with luciferase, serves as a proxy for viable cell number.)

The mark [3] stands for this setting: AlphaScreen assay, Table C2, read-out: BRD4 BDII IC50.
Setting [4] is: SKM-1, 96 h, SKM-1 antiproliferation assay, 4 days, Table C2.
The mark [5] stands for this setting: BRD4 BDII AlphaScreen assay, read-out: BRD4 BD2 IC50.
[6] abbreviates: SKM-1, SKM-1 antiproliferation assay.

With `CN(C)C1(C)CCN(c2cc(-c3cc(F)cc(-c4ccc(-n5ccn(C)c5=O)c(Cl)c4)c3O)ccn2)C1` (stereo not drawn) [Example 741, 1-(3-chloro-3′-(2-(3-(dimethylamino)-3-methylpyrrolidin-1-yl)pyridin-4-yl)-5′-fluoro-2′-hydroxy-[1,1′-biphenyl]-4-yl)-3-methyl-1H-imidazol-2(3H)-one], the IC50 in assay [1] (setting [3]) lay in the range of 0.01 to 1 nM. In assay [2] (setting [4]), the GI50 is 0.3 to 30 nM.

Take `Cn1ccn(-c2ccc(-c3cc(F)cc(-c4ccnc(N5CCC(C)(C(N)=O)C5)c4)c3O)cc2Cl)c1=O` (stereo not drawn) [Example 773, 1-(4-(3′-chloro-5-fluoro-2-hydroxy-4′-(3-methyl-2-oxo-2,3-dihydro-1H-imidazol-1-yl)-[1,1′-biphenyl]-3-yl)pyridin-2-yl)-3-methylpyrrolidine-3-carboxamide]: the IC50 in assay [1] (setting [3]) fell in the range of 1 to 10 nM. This molecule yielded a concentration for 50% growth inhibition (GI50) in assay [2] (setting [4]) of 30 to 300 nM.

Regarding `CN1CCN(c2ccc(-c3cc(C(F)(F)F)cc(-c4ccnc(N5CCNCC5)c4)c3O)cc2Cl)C1=O` [Example 332, 1-(3-chloro-2′-hydroxy-3′-(2-(piperazin-1-yl)pyridin-4-yl)-5′-(trifluoromethyl)-[1,1′-biphenyl]-4-yl)-3-methylimidazolidin-2-one], the IC50 in assay [1] (setting [3]) was in the range of 10 to 100 nM. In assay [2] (setting [4]), the GI50 was not below 3000 nM.

As for `Cn1ccn(-c2ccc(-c3cc(F)cc(-c4cc(N5CCNC(C)(C)C5)c5cn[nH]c5c4)c3O)cc2Cl)c1=O` [Example 589, 1-(3-chloro-3′-(4-(3,3-dimethylpiperazin-1-yl)-1H-indazol-6-yl)-5′-fluoro-2′-hydroxy-[1,1′-biphenyl]-4-yl)-3-methyl-1H-imidazol-2(3H)-one], in assay [1] (setting [3]), the IC50 lay in the range of 1 to 10 nM. In assay [2] (setting [4]), this molecule had a GI50 of 0.3 to 30 nM.

For `Cn1ccn(-c2ccc(-c3cc(F)cc(-c4ccnc(C5=CCCNC5)c4)c3O)cc2Cl)c1=O` [Example 657, 1-(3-chloro-5′-fluoro-2′-hydroxy-3′-(1′,2′,5′,6′-tetrahydro-[2,3′-bipyridin]-4-yl)-[1,1′-biphenyl]-4-yl)-3-methyl-1H-imidazol-2(3H)-one], the IC50 in assay [1] (setting [3]) was in the range of 0.01 to 1 nM. Further, the GI50 in assay [2] (setting [4]) lay within 0.3 to 30 nM.

Take `C[C@@H]1CN(c2cc(-c3cc(F)cc(-c4ccc(-n5ccn(C)c5=O)c(Cl)c4)c3O)cc3[nH]cnc23)CCN1` [Example 522, (R)-1-(3-chloro-5′-fluoro-2′-hydroxy-3′-(4-(3-methylpiperazin-1-yl)-1H-benzo[d]imidazol-6-yl)-[1,1′-biphenyl]-4-yl)-3-methyl-1H-imidazol-2(3H)-one]: the half-inhibitory concentration (IC50) in assay [1] (setting [3]) fell in the range of 1 to 10 nM. Further, the concentration for 50% growth inhibition (GI50) in assay [2] (setting [4]) was in the range of 0.3 to 30 nM.

Turning to `CC(=O)Nc1ccc(-c2cccc(-c3cc(N)nc(N4CCNCC4)c3)c2O)cc1F` [Example 348, N-(3′-(2-amino-6-(piperazin-1-yl)pyridin-4-yl)-3-fluoro-2′-hydroxy-[1,1′-biphenyl]-4-yl)acetamide], the IC50 in assay [1] (setting [3]) fell in the range of 1 to 10 nM. The same molecule yielded a GI50 in assay [2] (setting [4]) of 30 to 300 nM.

Turning to `CC(=O)Nc1ccc(-c2cccc(-c3ccnc(N4CC(C)NC(C)C4)c3)c2O)cc1F` (stereo not drawn) [Example 279, N-(3′-(2-(3,5-dimethylpiperazin-1-yl)pyridin-4-yl)-3-fluoro-2′-hydroxy-[1,1′-biphenyl]-4-yl)acetamide], the IC50 in assay [1] (setting [3]) was in the range of 1 to 10 nM. This molecule also had a GI50 in assay [2] (setting [4]) of 300 to 3000 nM.

In the case of `Cc1ncc(-c2cc(F)cc(-c3ccc(-n4ccn(C)c4=O)c(Cl)c3)c2O)cc1N1CC(O)(CO)C1` [Example 839, 1-(3-chloro-5′-fluoro-2′-hydroxy-3′-(5-(3-hydroxy-3-(hydroxymethyl)azetidin-1-yl)-6-methylpyridin-3-yl)-[1,1′-biphenyl]-4-yl)-3-methyl-1H-imidazol-2(3H)-one], in assay [1] (setting [3]), the IC50 fell in the range of 0.01 to 1 nM. In assay [2] (setting [4]), the GI50 was in the range of 0.3 to 30 nM.

For `C[C@@H]1CN(c2cc(-c3cc(F)cc(-c4ccc(-n5ccn(C)c5=O)c(Cl)c4)c3N)ccn2)CCN1` [Example 542, (R)-1-(2′-amino-3-chloro-5′-fluoro-3′-(2-(3-methylpiperazin-1-yl)pyridin-4-yl)-[1,1′-biphenyl]-4-yl)-3-methyl-1H-imidazol-2(3H)-one], the IC50 in assay [1] (setting [3]) fell in the range of 1 to 10 nM. The same molecule displayed a GI50 in assay [2] (setting [4]) of 30 to 300 nM.

Take `Cn1ccn(-c2ccc(-c3cc(F)cc(-c4ccnc(N5CC6CNC6C5)c4)c3O)cc2Cl)c1=O` (stereo not drawn) [Example 656, 1-(3′-(2-(3,6-diazabicyclo[3.2.0]heptan-3-yl)pyridin-4-yl)-3-chloro-5′-fluoro-2′-hydroxy-[1,1′-biphenyl]-4-yl)-3-methyl-1H-imidazol-2(3H)-one]: the IC50 in assay [1] (setting [3]) is 0.01 to 1 nM. Moreover, the GI50 in assay [2] (setting [4]) was in the range of 0.3 to 30 nM.

In the case of `C[C@@H]1CN(c2cc(-c3cc(F)cc(-c4ccc(-n5ccn(C)c5=O)c(Cl)c4)c3O)ccn2)C[C@@H](C)O1` [Example 684, 1-(3-chloro-3′-(2-((2R,6R)-2,6-dimethylmorpholino)pyridin-4-yl)-5′-fluoro-2′-hydroxy-[1,1′-biphenyl]-4-yl)-3-methyl-1H-imidazol-2(3H)-one], the IC50 in assay [1] (setting [3]) is 1 to 10 nM. The molecule also came in with a GI50 in assay [2] (setting [4]) of 30 to 300 nM.

Consider `CN1CCN(c2ccc(-c3cccc(-c4cc(-c5ccccc5)nc(N5CCNCC5)c4)c3O)cc2Cl)C1=O` [Example 344, 1-(3-chloro-2′-hydroxy-3′-(2-phenyl-6-(piperazin-1-yl)pyridin-4-yl)-[1,1′-biphenyl]-4-yl)-3-methylimidazolidin-2-one], for which, in assay [1] (setting [3]), the IC50 is 10 to 100 nM. The molecule further displayed a GI50 in assay [2] (setting [4]) of 30 to 300 nM.

As to `Cn1ccn(-c2ccc(-c3cc(F)cc(-c4cc(N5CC6CCC5CN6)c5cn[nH]c5c4)c3O)cc2Cl)c1=O` (stereo not drawn) [Example 600, 1-(3′-(4-(2,5-diazabicyclo[2.2.2]octan-2-yl)-1H-indazol-6-yl)-3-chloro-5′-fluoro-2′-hydroxy-[1,1′-biphenyl]-4-yl)-3-methyl-1H-imidazol-2(3H)-one], in assay [1] (setting [3]), the IC50 lay within 1 to 10 nM. In assay [2] (setting [4]), the GI50 was in the range of 0.3 to 30 nM.

As to `CNc1ncc(-c2nc(C)cc(-c3ccc(-n4ccn(C)c4=O)c(Cl)c3)c2O)cc1N1CCN(C(C)(C)C)CC1` [Example 963, 1-(4-(5′-(4-(tert-butyl)piperazin-1-yl)-3-hydroxy-6-methyl-6′-(methylamino)-[2,3′-bipyridin]-4-yl)-2-chlorophenyl)-3-methyl-1H-imidazol-2(3H)-one], the IC50 in assay [1] (setting [5]) lay within 1 to 10 nM. In addition, the GI50 in assay [2] (setting [6]) lay within 0.3 to 30 nM.

Take `CC(C)Oc1cc(-c2cc(F)cc(-c3ccnc(N4CCNCC4)c3)c2O)cc(Cl)c1N1CCN(C)C1=O` [Example 418, 1-(3-chloro-5′-fluoro-2′-hydroxy-5-isopropoxy-3′-(2-(piperazin-1-yl)pyridin-4-yl)-[1,1′-biphenyl]-4-yl)-3-methylimidazolidin-2-one]: in assay [1] (setting [3]), the IC50 lay in the range of 10 to 100 nM. This molecule also yielded a GI50 in assay [2] (setting [4]) of 300 to 3000 nM.

`CCC(=O)Nc1cc(-c2cc(F)cc(-c3ccc(-n4ccn(C)c4=O)c(Cl)c3)c2O)cc(N2CC[C@H](N)C2)n1` [Example 523, (S)-N-(6-(3-aminopyrrolidin-1-yl)-4-(3′-chloro-5-fluoro-2-hydroxy-4′-(3-methyl-2-oxo-2,3-dihydro-1H-imidazol-1-yl)-[1,1′-biphenyl]-3-yl)pyridin-2-yl)propionamide]: the IC50 in assay [1] (setting [3]) lay in the range of 1 to 10 nM. In assay [2] (setting [4]), this molecule yielded a GI50 of 0.3 to 30 nM.

Regarding `C[C@@H]1CN(c2cc(-c3cc(F)cc(-c4ccc(-n5ccn(C)c5=O)c(Cl)c4)c3O)cn3ccnc23)CCN1` [Example 584], the IC50 in assay [1] (setting [3]) is 0.01 to 1 nM. This molecule also registered a GI50 in assay [2] (setting [4]) of 0.3 to 30 nM.

On to `Cc1cc(-c2ccc(-n3ccn(C)c3=O)c(Cl)c2)c(O)c(-c2cc(N3CCN(C(C)(C)C)CC3)c(=O)n(C)c2)n1` [Example 1011, 5′-(4-(tert-butyl)piperazin-1-yl)-4-(3-chloro-4-(3-methyl-2-oxo-2,3-dihydro-1H-imidazol-1-yl)phenyl)-3-hydroxy-1′,6-dimethyl-[2,3′-bipyridin]-6′(1′H)-one], for which the IC50 in assay [1] (setting [5]) lay in the range of 10 to 100 nM. Moreover, the GI50 in assay [2] (setting [6]) lay in the range of 0.3 to 30 nM.

Consider `Cn1ccn(-c2ccc(-c3cc(F)cc(-c4ccnc(N5CCC(C)(N)CC5)c4)c3O)cc2Cl)c1=O` [Example 778], for which, in assay [1] (setting [3]), the IC50 fell in the range of 1 to 10 nM. The same molecule displayed a GI50 in assay [2] (setting [4]) of 0.3 to 30 nM.

Regarding `CN1CCCC12CCN(c1cc(-c3cc(F)cc(-c4ccc(-n5ccn(C)c5=O)c(Cl)c4)c3O)cn(C)c1=O)C2` (stereo not drawn) [Example 696, 5-(3′-chloro-5-fluoro-2-hydroxy-4′-(3-methyl-2-oxo-2,3-dihydro-1H-imidazol-1-yl)-[1,1′-biphenyl]-3-yl)-1-methyl-3-(1-methyl-1,7-diazaspiro[4.4]nonan-7-yl)pyridin-2(1H)-one], the IC50 in assay [1] (setting [3]) lay within 0.01 to 1 nM. Besides, in assay [2] (setting [4]), the GI50 was in the range of 0.3 to 30 nM.

As for `COc1ncc(-c2cc(F)cc(-c3ccc(-n4ccn(C)c4=O)c(Cl)c3)c2O)cc1N1CCN(C(C)C)CC1` [Example 738, 1-(3-chloro-5′-fluoro-2′-hydroxy-3′-(5-(4-isopropylpiperazin-1-yl)-6-methoxypyridin-3-yl)-[1,1′-biphenyl]-4-yl)-3-methyl-1H-imidazol-2(3H)-one], in assay [1] (setting [3]), the 50% inhibitory concentration (IC50) lay within 0.01 to 1 nM. For the same molecule, the GI50 in assay [2] (setting [4]) is 0.3 to 30 nM.

Regarding `Cc1cc(-c2ccc(-n3ccn(C)c3=O)c(Cl)c2)c(O)c(-c2cnc(N(C)C)c(N3CCC4(CCCN4C(C)C)C3)c2)n1` (stereo not drawn) [Example 994, 1-(2-Chloro-4-(6′-(dimethylamino)-3-hydroxy-5′-(1-isopropyl-1,7-diazaspiro[4.4]nonan-7-yl)-6-methyl-[2,3′-bipyridin]-4-yl)phenyl)-3-methyl-1H-imidazol-2(3H)-one], the IC50 in assay [1] (setting [5]) fell in the range of 1 to 10 nM. The same molecule gave a GI50 in assay [2] (setting [6]) of 0.3 to 30 nM.

Regarding `Cc1cc(-c2cccc(N3CCN(C(C)(C)C)CC3)c2)c(O)c(-c2ccc(-n3ccn(C)c3=O)c(Cl)c2)c1` [Example 1016, 1-(3″-(4-(tert-butyl)piperazin-1-yl)-3-chloro-2′-hydroxy-5′-methyl-[1,1′:3′,1″-terphenyl]-4-yl)-3-methyl-1H-imidazol-2(3H)-one], the IC50 in assay [1] (setting [5]) was in the range of 0.01 to 1 nM. The same molecule displayed a GI50 in assay [2] (setting [6]) of 0.3 to 30 nM.
